From patent publication US7557109B2, “Treatment for attention-deficit hyperactivity disorder” (priority 2001, dated 2009)

How the values were obtained:
[1] = system: DA and 5-HT release in dorsal striatum; test: In vivo microdialysis of DA and 5-HT release in dorsal striatum, wild-type mice
Source text: (§1) Wild-type and 5-HT1B knock out mice were implanted with microdialysis probes according to the methods of DeGroote et al., incorporated herein by reference, with the following modifications. (DeGroote et al., Eur. J. Pharmacol., 439:93-100, 2002). The dialysis probe was placed in the dorsal striatum, at coordinates AP +0.80, ML −1.7 mm from bregma, DV −4.0 mm from the dura, according to the stereotaxic atlas of the mouse brain (Franklin and Paxinos, 1997), and with the toothbar set at 0 mm. Microdialysis experiments were begun 16-20 hours after surgery, using previously described methods, which are incorporated herein by reference (DeGroote et al., 2002). After the start of the dialysis probe perfusion, mice were left undisturbed for three hours. Mice were tested in their home cage during the light period. Samples were collected every 20 minutes in vials containing 7.5 μl acetic acid and stored at −80° C. until HPLC analysis.
Release of DA and 5-HT was measured after peripheral administration of eltoprazine or intrastriatal administration of the selective 5-HT1B receptor agonist CP 93129 dihydrochloride (1,4-Dihydro-3-(1,2,3,6-tetrahydro-4-pyridinyl)-5H-pyrrolo[3,2-b]pyridin-5-one, obtained from Tocris, UK.) Drugs were dissolved in distilled water and further diluted in Ringer solution to the final concentration on the day of the experiment. 5-HT and DA were analyzed by HPLC with electrochemical detection. Samples (25 μl) were injected onto an Inertsil ODS-3 column (3 μM, 2.1×100 mm, Aurora Borealis, The Netherlands) using a Gilson pump and autosampler (Separations, The Netherlands). Separation was performed at 40° C. with the electrochemical detector (Intro, ANTEC Leyden, The Netherlands) set at a potential of 600 mV against an Ag/AgCl reference electrode. The signal was analyzed using Gynkotek software. The mobile phase consisted of 5 g/l (NH4)2SO4, 150 mg/l heptane sulphonic acid sodium salt, 0.5 g/l EDTA, 5% methanol, 30 μl/l triethylamine, 30 μl/l acetic acid, pH 4.6. Flow rate was 0.3 ml/min. The detection limit for 5-HT was 0.5 fmol/25 μl sample (signal to noise ratio 2).
(§2) Values for the first four consecutive microdialysis samples were averaged to calculate the basal levels of extracellular 5-HT and DA, uncorrected for probe recovery. Student's t-tests were used to compare basal 5-HT and DA values between the two genotypes. Effects of drug treatment were analyzed by a repeated multivariate analysis of variance (ANOVA) with time as ‘within’ and treatment (or dose) and genotype as ‘between’ factors.

[2] = system: DA and 5-HT release in dorsal striatum; test: In vivo microdialysis of DA and 5-HT release in dorsal striatum, 1BKO mice; parameters: species or system 5-HT1B knock out mice; conditions: local administration
Source text: as §1
Release of DA and 5-HT was measured after peripheral administration of eltoprazine or intrastriatal administration of the selective 5-HT1B receptor agonist CP 93129 dihydrochloride (1,4-Dihydro-3-(1,2,3,6-tetrahydro-4-pyridinyl)-5H-pyrrolo[3,2-b]pyridin-5-one, obtained from Tocris, UK.) Drugs were dissolved in distilled water and further diluted in Ringer solution to the final concentration on the day of the experiment. 5-HT and DA were analyzed by HPLC with electrochemical detection. Samples (25 μl) were injected onto an Inertsil ODS-3 column (3 μM, 2.1×100 mm, Aurora Borealis, The Netherlands) using a Gilson pump and autosampler (Separations, The Netherlands). […] The signal was analyzed using Gynkotek software. […]
as §2, with “Student's t-tests were used to compare basal 5-HT and DA values between the two genotypes.” left out

[3] = system: C3H mice; test: Peak procedure (30 second reinforcement interval), C3H mice; type: in vivo; conditions: 0.3 to 3.0 mg/kg i.p. (FIG. 8)
Protocol: (§3) The peak procedure is a behavioral model designed to assess an animal's ability to learn an appropriate time period in which to perform a task and a time period in which the animal will be rewarded if the task is performed. The model provides information concerning excitatory and inhibitory components of behavior, as subjects must respond to perform a task when appropriate and stop responding in an “empty trial” when time for reward has elapsed and the reward has not been delivered. The task is sensitive to conditions where there is a failure in inhibitory mechanisms, such as seems to be the case for ADHD (Pliszka et al., Biol. Psychiatry, 48:238-46, 2000).
In the peak procedure, mice are trained to work for food that is delivered at the same time in each trial, but withdrawn in some unreinforced trials. Typically, the response rate increases up to a maximum around the reinforcement time, and then decreases to a low toward the end of the trial. The shape of the response rate indicates whether the animal is sensitive to the time of reinforcement. To be able to perform well in this model, the animals need to be able to learn several tasks. First, the animal must make an association between a response (lever pressing, nose poking or key pecking) and the delivery of reward. Second, the animal must be able to perceive and remember time. Third, the animal must act on its remembered time by starting and then stopping or inhibiting the response. Fourth, the animal must be able to compare the elapsed time in the trials with its remembered time to reinforcement. […] Accuracy is measured by looking at the shape of the response function; therefore, if the response function is sharper and centered on the reinforcement time it supports a conclusion that attentional processes have been heightened.
(§4) Mice were food deprived to 85-90% of their free-feeding body weight by supplementing food earned during experimental sessions with a measured amount after the session had ended. […]

[4] = system: coloboma (Cm) mutant mice; type: in vivo
Source text: (§5) Heterozygote coloboma mice were originally purchased from The Jackson Laboratory (Bar Harbor, Me.) and were bred and maintained in our colony. In the current study, 20 mutant mice and 25 wild-type littermates, all aged 8 to 10 weeks, were used. Animals were divided into 4 groups: mutant/drug-treatment (n=11), mutant/vehicle-control (n=9), wild-type/drug-treatment (n=13), wild-type/vehicle-control (n=12). Age and gender were balanced among groups. All animals were housed as littermates (2-4 mice per cage) and were maintained on ad libitum food and water with a 12 hr light/dark cycle.
(§6) Open-field testing was performed under normal lighting conditions. Mice were brought into the experimental room and allowed at least 1 hr of acclimatization. Thirty minutes prior to testing, animals received an ip. injection of either d-amphetamine (4 mg/kg), eltoprazine (0.5 mg/kg) or saline. The mice were then placed in the activity monitor arenas (27×27×20 cm, Med Associates). Four animals of matching genotype and treatment were tested at one time. Each testing session lasted 40 minutes, after which animals were returned to their home cages. An automated infrared beam array system measured locomotor activity (total distance traveled) and number of center entries (zone crossings).

[5] = system: wild-type mice; test: Open-field locomotor activity, wild-type littermates; type: in vivo
Source text: as §5, §6

[6] = system: C57BL/6J mice; test: Peak procedure (30 second reinforcement interval), C57BL/6J mice; type: in vivo
Protocol: as §3
In the peak procedure, mice are trained to work for food that is delivered at the same time in each trial, but withdrawn in some unreinforced trials. Typically, the response rate increases up to a maximum around the reinforcement time, and then decreases to a low toward the end of the trial. […] Accuracy is measured by looking at the shape of the response function; therefore, if the response function is sharper and centered on the reinforcement time it supports a conclusion that attentional processes have been heightened.
as §4

[7] = system: wild-type mice; test: DRL-36s schedule after FR5 conditioning, wild-type mice; type: in vivo
Protocol: (§7) Experiments were conducted in eight identical mouse operant chambers (16×14×13 cm) with stainless steel grid floors (ENV-307M; Med Associates Inc., Georgia, Vt., USA) housed in sound-insulating and ventilated cubicles. Each chamber was equipped with two ultra-sensitive retractable levers, one on each side of a food cup containing photocells to register nose poke behavior and in which a pellet dispenser delivered 20 mg food pellets (Formula A/I, P.J. Noyes Company Inc., Lancaster, N.H., USA). A red house light (50 lux) was located in the center of the wall opposite to the food cup and levers. Stimulus lights were located above each lever and above the food cup. Experimental sessions were controlled and data were recorded by a computer.
(§8) Mice trained on DRL procedure first received operant conditioning. DRL-36s task was adapted from procedures used in rats (O'Donnell and Seiden, supra). Briefly, mice first learned to respond for food under a DRL 6 sec schedule, which means that mice had to wait at least 6 seconds between successive lever presses in order to obtain a food reward. Subsequently the schedule requirement was increased every session in steps of 6 sec to 36 sec (DRL 36 sec). Each session started with the illumination of the house light, the stimulus light above the food cup and the presentation of the left lever for the duration of the session. […] If the mouse presses too soon, no reinforcement is given, the clock is reset to zero, and a new 36-sec waiting period starts. In this way, the DRL-36s schedule task primarily measures waiting strategies which reflect hyperactivity-impulsivity behaviors associated with ADHD. Animals were trained until performances on the DRL 36 sec schedule had stabilized (approximately 25 sessions). All training sessions lasted 60 min and were conducted 5 days per week from Monday-Friday. The total number of lever presses (responses), the total number of reinforcements, and the inter-response times (IRT) are recorded.
Data were analyzed as described elsewhere (Richards et al., J. Exp. Anal. Behav. 60:361-385, 1993; Sabol et al., Psychopharmacology 121:57-65, 1995). The inter-response time (IRT) analysis included three measures for the characterization of DRL 36 sec IRT distributions: peak area, peak location and burst ratio. Only peak area (PkA) and peak location (PkL) are presented. The PkA measure is the area of the obtained IRT distribution of a mouse above the corresponding negative exponential, a computation based on mean of obtained IRT durations excluding the burst component of IRT<3 sec (see Richards et al., supra, for details). […] Thus, decreases in PkA indicate that the mouse's IRT distribution becomes more similar to random performance indicating loss of schedule control. PkL is calculated as the median of the area of the obtained IRT distribution above the corresponding negative exponential.
Mice were conditioned and challenged on a DRL-36s schedule according to the methods of Example 7, with the following modifications. Because 1BKO mice had difficulty learning the DRL-36s schedule following conditioning on an FR1, wild-type and 1BKO mice were conditioned on a fixed rate 5 (FR5) schedule. In FR5, instead of pressing the lever once for a reward, animals have to press 5 times. The rationale for changing the operant conditioning was that by increasing the number of responses necessary for reinforcement, the wild-type mice should have greater difficulty and the 1BKO (which have higher response rates anyway) should have less difficulty getting reinforcements.

[8] = system: 5-HT1B knockout (1BKO) mice; test: DRL-36s schedule after FR5 conditioning, 5-HT1B knockout mice; type: in vivo
Protocol: as §7, §8
Data were analyzed as described elsewhere (Richards et al., J. Exp. Anal. Behav. 60:361-385, 1993; Sabol et al., Psychopharmacology 121:57-65, 1995). The inter-response time (IRT) analysis included three measures for the characterization of DRL 36 sec IRT distributions: peak area, peak location and burst ratio. Only peak area (PkA) and peak location (PkL) are presented. The PkA measure is the area of the obtained IRT distribution of a mouse above the corresponding negative exponential, a computation based on mean of obtained IRT durations excluding the burst component of IRT<3 sec (see Richards et al., supra, for details). […] PkL is calculated as the median of the area of the obtained IRT distribution above the corresponding negative exponential. […]

[9] = system: Cm mutant mice; conditions: Hess et al., 1996; cited from earlier work

Compound: O=c1ccc2[nH]cc(C3=CCNCC3)c2[nH]1 [CP 93129, 1,4-Dihydro-3-(1,2,3,6-tetrahydro-4-pyridinyl)-5H-pyrrolo[3,2-b]pyridin-5-one, reference compound]
- DA release ([1]; 0.5 μM, local administration): unaffected
- time for 5-HT release to return toward basal levels after cessation ([1]; 0.5 μM, local administration): ≤ 40 min
- 5-HT level as compared to vehicle ([1]; 0.5 μM, local administration through probe): 51±9%
- increase in DA levels ([1]; 50 μM, local administration, compared to vehicle): 525±79%
- 5-HT release ([2]; 0.5 μM): did not decrease 5-HT release
- striatal release of DA ([2]; 0.5 μM): similarly unaffected
- increase in DA levels ([2]; 50 μM, compared to vehicle): 527±67%

Compound: CCCOc1ccc2[nH]cc(C3=CCNCC3)c2n1 [CP 94253, reference compound]
- timing in the peak procedure [3]: no effect on timing in the peak procedure
- distance traveled ([4]; 0.5 mg/kg (FIG. 7)): did not decrease significantly the distance traveled
- locomotor activity ([5]; 0.5 mg/kg (FIG. 7)): no effect on the locomotor activity

Compound: C[C@H](N)Cc1ccccc1 [d-amphetamine]
- relative response rate curve in peak trials ([6]; 4 mg/kg, 30 min before session (FIG. 1C)): does not peak as high as the lower dose and the curve is flatter
- relative response rate curve in peak trials ([6]; 1 and 2 mg/kg, 30 min before session, relative to saline (FIGS. 1A, 1B)): higher peak in the curve followed by a rapid decrease
- total distance traveled ([4]; 4 mg/kg i.p., 40 min session, saline 18386±6387 (FIG. 4)): 5966±1938 cm
- total distance traveled ([5]; 4 mg/kg i.p., 40 min session, saline 3116±338 (FIG. 4)): 11657±2370 cm
- response rate ([7]; 2 mg/kg i.p.): significantly increased response rate
- response rate ([7]; 4 mg/kg i.p., wild-type vs 1BKO): significantly decreased response rate in wild-types compared to 1BKO mice
- response rate ([7]; 8 mg/kg i.p.): decreased response rate
- number of reinforcements ([7]; 2 and 8 mg/kg i.p. vs vehicle (FIG. 12A)): significantly decreased the number of reinforcements
- number of reinforcements ([8]; 2, 4 or 8 mg/kg i.p. (FIG. 12A)): no significant effect on number of reinforcements
- response rate ([8]; 2, 4 or 8 mg/kg i.p. (FIG. 12B)): not statistically significant at any dose
- hyperactivity / locomotor activity in Cm mutant mice [9]: normalizes the hyperactivity

Compound: COC(=O)C(c1ccccc1)C1CCCCN1 (stereo not shown) [methylphenidate]
- hyperactivity / locomotor activity in Cm mutant mice [9]: increases locomotor activity in a dose-dependent manner
